In patent US11306306B1, “Selective degradation of proteins” (SyntheX, Inc., priority 2019, dated 2022):

Legend:
[1] = system: aggressive adherent cancer cell lines (e.g. HeLa, A431, T47D, MCF7, MDA-MB-231); details: several aggressive adherent cancer cell lines (e.g. HeLa, A431, T47D, MCF7, MDA-MB-231); cited from earlier work
[2] = system: COI1b bridged to plant protein (AXR) fused to a TetR DBD and an AD; assay: Positive readout screen for bridging agents, death agent, 96 well plate growth (OD600), E3 ligase COI1b; assay type: cell-based, S. cerevisiae; details: duplicate wells, 30° C., final timepoint 84 hrs
Protocol: In yet another example, cells expressing a heterologous E3 ligase, in this case COI1b, were assayed for survival to discover bridging agents that can bridge COI1b to the bait and lead to degradation, thereby enabling cell growth (as shown in FIG. 11A). S. cerevisiae cells were modified to minimize drug efflux by deletion of drug efflux pumps and transcription factors encoding for their expression as previously described (Chinen, 2011). The target used was a plant protein (AXR) that is ubiquitinated and degraded in response to Jasmonate-isoleucine fused to a TetR DBD and an AD. Cells containing the E3 ligases and the death agents were mated to cells containing the target. The mated cells were then aliquoted into a 96 well plate at a starting OD600=0.05. Various compounds were tested in duplicate wells at a concentration gradient down from 100 uM. […] Plates were incubated at 30° C. with shaking and continuously monitored for growth using OD600 in a Cytation 1 instrument.

[3] = system: TIR1 bridged to plant protein (AXR) fused to a TetR DBD and an AD; assay: Positive readout high throughput screen for bridging agents, death agent, 96 well plate growth (OD600), E3 ligase TIR1; assay type: cell-based, Saccharomyces cerevisiae; details: 10 uM, quadruplicate wells, 30° C., final timepoint 48 hrs
Protocol: In another example, cells expressing a heterologous E3 ligase, in this case TIR1, were assayed for survival to discover bridging agents that can bridge TIR1 to the bait and lead to degradation, thereby enabling cell growth (schematic shown in FIG. 10A). The target was a plant protein (AXR) that is ubiquitinated and degraded in response to Indol Acetic Acid fused to a TetR DBD and an AD. Cells containing the E3 ligases and the death agent were mated to cells containing the target. The mated cells were then aliquoted into a 96 well plate at a starting OD600=0.05. In this example, various compounds were used in quadruplicate wells at a concentration of 10 uM, and plated cells starting at OD600=0.05 (with the border wells on each side kept as negative controls). Plates were incubated at 30° C. with shaking and continuously monitored for growth using OD600 in a Cytation 1 instrument.

In the case of Gymnopeptide B [GymB], the IC50 values [1] is listed as “low nanomolar range”.
In the case of Gymnopeptide A [GymA], the IC50 values [1] is listed as “low nanomolar range”.
For `CC[C@H]1C=C(C(=O)N[C@@]2(C(=O)O)C[C@@H]2CC)[C@H]2CCC(=O)[C@H]2C1` [coronatine], the “cell growth (OD600): bridging COI1b to the bait, leading to degradation” value (“cell growth (OD600): bridging COI1b” for short) ([2]; 50 uM (wells G8/9)) was “exhibited cell growth”, the “cell growth (OD600): bridging COI1b” value ([2]; 75 uM (wells F8/9)) was “exhibited cell growth” and the “cell growth (OD600): bridging COI1b” value ([2]; 100 uM (wells E8/9)) was “exhibited cell growth”.
In the case of `O=C(O)Cc1ccccc1` [PAA], the “cell growth (OD600): bridging TIR1 to the bait, leading to degradation” value [3] is reported as “functional bridging agents”.
